Broadly, the IC50 is the concentration that gives 50% inhibition.

SMILES strings stand for the structures. The source made the active and inactive calls. The calls are words filed in the database; no cut-off is given here.

In test [1] the test system is NCI-H460. In words: Antiproliferative activity against human H460 cells after 72 hrs by MTT assay. It is filed as functional, cell-based. Particulars: NCI-H460, 72 h.
A further test has as its system SMMC-7721. The test can be described thus: Antiproliferative activity against human SMMC7721 cells after 72 hrs by MTT assay. It is filed as functional, cell-based. Particulars: SMMC-7721, 72 h. A general note: Formazan colour is commonly taken as a measure of viable cells.
In test [2] the test system is HT-29. In words: cells. Conditions: Homo sapiens, HT-29, 72 h.
Test [3] concerns A549. In words: cells. Conditions: Homo sapiens, A549, 72 h.
Description: Antiproliferative activity against human A549 cells after 72 hrs by MTT assay
For a further test, the system named is MKN-45. The test can be described thus: cells. Conditions: Homo sapiens, MKN-45, 72 h.
Test [4] has as its system A549. In words: Induction of microtubule depolymerization in human A549 cells assessed as scattered short microtubule fragment formation in cytoplasm at 30 nM after 24 hrs by DAPI staining based immunofluorescence microscopic method. It is filed as cell-based.
Test [5] has as its system HT-29. The test can be described thus: Potency index, ratio of crolibulin IC50 to compound IC50 for human HT-29 cells. It is filed as functional.
The test system of test [6] is NCI-H460. The test can be described thus: Potency index, ratio of CA-4 IC50 to compound IC50 for human H460 cells. It is filed as functional.
For test [7], the system named is A549. In words: Potency index, ratio of CA-4 IC50 to compound IC50 for human A549 cells. It is filed as functional.
Test [8] concerns A549. In words: Potency index, ratio of crolibulin IC50 to compound IC50 for human A549 cells. It is filed as functional.

Description for MKN-45: Antiproliferative activity against human MKN45 cells after 72 hrs by MTT assay

In the case of `COc1cc(-c2cc(-c3ccc(F)cc3)nc(-n3cccc3CN3CCC(C)CC3)c2C#N)cc(OC)c1OC`, the IC50 in the test with NCI-H460 [1] was 0.07 µM; in the test with SMMC-7721 it was 5.87 µM.

In the case of `COc1ccc(-c2cc(-c3ccc(F)cc3)nc(-n3cccc3CN3CCC(C)CC3)c2C#N)c(OC)c1OC`, the IC50 with NCI-H460 [1] was 3.88 µM; in the test with SMMC-7721 it was 47.4 µM; in the test on HT-29 [2], 1.37 µM; in the test with A549 [3], 6.95 µM; in the test on MKN-45, 46.2 µM.

Regarding `COc1cc(-c2cc(-c3ccc(F)cc3)nc(-n3cccc3)c2C#N)cc(OC)c1OC`, the IC50 with NCI-H460 [1] is 21.3 µM; with SMMC-7721 it was 61.1 µM; with HT-29 [2], 9.34 µM; with A549 [3], 44.1 µM; with MKN-45, 58.5 µM.

For the compound `COc1cc(-c2cc(-c3ccc(F)cc3)nc(-n3cccc3CN3CCCC3)c2C#N)cc(OC)c1OC`, the IC50 in the test with NCI-H460 [1] was determined as 8.31 µM; with SMMC-7721 it was 36.8 µM; in the test with HT-29 [2], 1.2 µM; with A549 [3], 11 µM; in the test with MKN-45, 35.8 µM.

As to `COc1cc(-c2cc(-c3ccc(F)cc3F)nc(-n3cccc3CN3CCC(C)CC3)c2C#N)cc(OC)c1OC`, the IC50 with NCI-H460 [1] came to 5.3 µM; in the test with SMMC-7721, 7.73 µM; with HT-29 [2], 8.76 µM; in the test on A549 [3] it was 8.07 µM; with MKN-45, 5.91 µM.

For `COc1ccc(-c2cc(-c3ccc(F)cc3)nc(-n3cccc3CN3CCN(C)CC3)c2C#N)c(OC)c1OC`, the IC50 in the test with NCI-H460 [1] amounted to 0.11 µM; in the test with SMMC-7721 it was 18.2 µM; with HT-29 [2] it was 0.06 µM; in the test with A549 [3], 4.55 µM; with MKN-45, 10.1 µM.

For `COc1cc([C@H]2C(C#N)=C(N)Oc3c2ccc(N)c3N)cc(Br)c1OC` [CROLIBULIN], the 50% inhibitory concentration (IC50) with NCI-H460 [1] was found to be 0.03 µM; in the test with HT-29 [2], 0.55 µM; in the test on A549 [3], 0.39 µM; in the test on MKN-45, 0.17 µM.

As to `COc1cc(-c2cc(-c3ccc(F)cc3F)nc(-n3cccc3CN3CCOCC3)c2C#N)cc(OC)c1OC`, the IC50 in the test on NCI-H460 [1] was 12.5 µM; in the test on SMMC-7721, 40.8 µM; with HT-29 [2], 6.34 µM; with A549 [3], 11 µM; in the test with MKN-45, 39.7 µM.

For the compound `CCNCc1cccn1-c1nc(-c2ccc(F)cc2)cc(-c2cc(OC)c(OC)c(OC)c2)c1C#N`, the IC50 was 1.54 µM in the test with NCI-H460 [1]; 13.1 µM with SMMC-7721; 1.21 µM with HT-29 [2]; 16.9 µM with A549 [3]; 42.2 µM with MKN-45.

Take `COc1cc(-c2cc(-c3ccc(F)cc3F)nc(-n3cccc3CN(C)C)c2C#N)cc(OC)c1OC`: the IC50 came to 6.18 µM in the test on NCI-H460 [1]; 11.7 µM in the test on SMMC-7721; 2.51 µM with HT-29 [2]; 10.7 µM in the test on A549 [3]; 7.28 µM with MKN-45.

In the case of `CCNCc1cccn1-c1nc(-c2ccc(F)cc2F)cc(-c2cc(OC)c(OC)c(OC)c2)c1C#N`, the IC50 in the test with NCI-H460 [1] came to 2.88 µM; with SMMC-7721, 4.2 µM; with HT-29 [2], 3.3 µM; with A549 [3] it was 4.12 µM; with MKN-45 it was 13.2 µM.

With `COc1cc(-c2cc(-c3ccc(F)cc3F)nc(-n3cccc3CNC(C)C)c2C#N)cc(OC)c1OC`, the IC50 in the test on NCI-H460 [1] came to 4.37 µM; with SMMC-7721, 21.9 µM; with HT-29 [2], 2.78 µM; with A549 [3] it was 16 µM; in the test with MKN-45, 57.5 µM.

In the case of `COc1cc(-c2cc(-c3ccc(F)cc3F)nc(-n3cccc3CN3CCN(C)CC3)c2C#N)cc(OC)c1OC`, the IC50 was 4.53 µM in the test with NCI-H460 [1]; 33.9 µM in the test on SMMC-7721; 1.77 µM in the test on HT-29 [2]; 4.72 µM in the test with A549 [3]; 39.8 µM in the test with MKN-45.

With `COc1ccc(/C=C\c2cc(OC)c(OC)c(OC)c2)cc1O` [COMBRETASTATIN A4], the IC50 in the test with NCI-H460 [1] was 0.08 µM; in the test on SMMC-7721, 1.72 µM; with HT-29 [2], 0.06 µM; in the test on A549 [3] it was 0.45 µM; in the test with MKN-45 it was 0.21 µM. Further, the result in the test on A549 [4] was Active.

With `CNCc1cccn1-c1nc(-c2ccc(F)cc2)cc(-c2ccc(OC)c(OC)c2OC)c1C#N`, the IC50 with NCI-H460 [1] worked out at 0.26 µM; with SMMC-7721, 12.1 µM; with HT-29 [2], 0.06 µM; in the test with A549 [3], 14.4 µM; in the test on MKN-45 it was 38.3 µM.

With `COc1cc(-c2cc(-c3ccc(F)cc3F)nc(-n3cccc3CN3CCCC3)c2C#N)cc(OC)c1OC`, the IC50 in the test on NCI-H460 [1] is 4.29 µM; in the test on SMMC-7721, 40.3 µM; with HT-29 [2], 5.86 µM; in the test with A549 [3], 10.8 µM; with MKN-45 it was 43.1 µM.

As for `COc1cc(-c2cc(-c3ccc(F)cc3)nc(-n3cccc3CN3CCOCC3)c2C#N)cc(OC)c1OC`, the values for the concentration for half-maximal inhibition (IC50) in the test on NCI-H460 [1] and in the test on SMMC-7721 were 5.56 µM and 18.8 µM, respectively.

As to `COc1cc(-c2cc(-c3ccc(F)cc3)nc(-n3cccc3CN3CCN(C)CC3)c2C#N)cc(OC)c1OC`, the IC50 with NCI-H460 [1] was 0.05 µM; in the test on SMMC-7721 it was 4.35 µM.

Consider `CNCc1cccn1-c1nc(-c2ccc(F)cc2)cc(-c2cc(OC)c(OC)c(OC)c2)c1C#N`, for which the IC50 with NCI-H460 [1] came to 0.06 µM; with SMMC-7721 it was 2.95 µM; in the test on HT-29 [2], 0.08 µM; in the test with A549 [3] it was 0.03 µM; in the test on MKN-45 it was 2.22 µM. The result in the test with A549 [4] was Active. In addition, the “Ratio IC50” value is listed as 6.9 - 13 with HT-29 [5], 1.3 - 15 with NCI-H460 [6], 1.3 - 15 in the test with A549 [7] and 6.9 - 13 with A549 [8].

`COc1ccc(-c2cc(-c3ccc(F)cc3)nc(-n3cccc3CN(C)C)c2C#N)c(OC)c1OC`: the IC50 in the test with NCI-H460 [1] came out at 5.77 µM; in the test on SMMC-7721 it was 2.36 µM; in the test on HT-29 [2] it was 3.71 µM; in the test with A549 [3], 12.6 µM; in the test with MKN-45 it was 45.3 µM.

In the case of `COc1cc(-c2cc(-c3ccc(F)cc3)nc(-n3cccc3CNC(C)C)c2C#N)cc(OC)c1OC`, the IC50 stood at 0.24 µM in the test with NCI-H460 [1]; 34.9 µM in the test with SMMC-7721; 0.1 µM with HT-29 [2]; 8.26 µM in the test with A549 [3]; 38.5 µM with MKN-45.

With `COc1cc(-c2cc(-c3ccc(F)cc3)nc(-n3cccc3CN(C)C)c2C#N)cc(OC)c1OC`, the IC50 worked out at 0.31 µM in the test on NCI-H460 [1]; 20.9 µM with SMMC-7721; 0.1 µM in the test with HT-29 [2]; 0.17 µM with A549 [3]; 10.4 µM in the test with MKN-45.

`CNCc1cccn1-c1nc(-c2ccc(F)cc2F)cc(-c2cc(OC)c(OC)c(OC)c2)c1C#N`: the IC50 with NCI-H460 [1] amounted to 2.98 µM; in the test on SMMC-7721, 33.4 µM; in the test with HT-29 [2] it was 0.95 µM; with A549 [3], 9.54 µM; in the test with MKN-45, 6.29 µM.
